The values that follow come from US20220226270A1, “VERY-LONG-CHAIN POLYUNSATURATED FATTY ACIDS, ELOVANOID HYDROXYLATED DERIVATIVES, AND METHODS OF USE” (Board of Supervisors of Louisiana State University and …, priority 2019, published 2022).

The test system of test [1] is mice sub-retinally injected with OAβ. Put plainly: Oligomeric Aβ (OAβ)-induced RPE senescence and retinal degeneration, sub-retinal injection. The class given is in vivo, mouse. As to conditions: 200 ng co-injected with 10 μM OAβ, 2 μl sub-retinal. The text has this:
As shown in FIGS. 14A-14C, elovanoids (ELV) counteract AR peptide-induced retinal pigment epithelial cell senescence progression. Aβ42, an end product of the amyloidogenic pathway, is a component of drusen in age-related macular degeneration (AMD), and of senile plaques in Alzheimer's disease (AD). To mimic the effect of OAβ in vivo, 6-month-old mice were used and sub-retinally injected with OAβ alone, OAβ+ELVs and ELVs alone. The no injection mice were used as negative control while the PBS injected mice were used as the sham. The injection volume was 2 μl containing of PBS, 10 μM of OAβ, 10 μM of OAβ+200 ng ELV-32, 200 ng ELV-32 alone, 10 μM of OAβ+200 ng ELV-34 or 200 ng ELV-34 alone. At day 3 after injection, mRNA from eyecup was isolated and analyzed the gene expression using q-PCR. Then, at day 7, the mice were subjected to Optical Coherence Tomography (OCT) analysis and then the eyes were enucleated and processed for histology, whole mount RPE staining, and western blotting (WB). OCT and histology uncovers that in OAβ induced retinal degeneration, the thickness of retina was thinner in OAβ injected group when compared to the controls as well as ELVs treatment groups.

In test [2] the test system is cerebral cortical mixed neuronal cells. Put plainly: NMDA excitotoxicity in cerebral cortical mixed neuronal cultures. The class given is cell-based, rat. As to conditions: for NMDA-induced neuronal death: NMDA 25, 50 or 100 μM for 12 h, ELV (Na or Me) 200 nM or 500 nM added simultaneously. The text has this: Primary cultures of cortical neurons: Primary cultures of cortical and hippocampal neurons were harvested from 18-day-old embryos (E18) taken from timed-pregnant, two-month-old Sprague-Dawley (SD) rats (Charles River Lab., Wilmington, Mass.). Briefly, timed-pregnant SD rats were euthanized and embryos were collected in sterile conditions. Embryonic brains were dissected out by forceps on ice and placed in a petri dish containing ice-cold Hank's Balanced Salt Solution (HBSS) (GIBCO). Meninges were removed under a dissecting microscope and cortical tissues were chopped into small pieces with micro-spring scissors. These tissues were transferred to 15 ml tubes containing trypsin-EDTA (0.025% in HBSS) and DNase I. The tubes were incubated in 37° C. chamber for 15 mins and were agitated every 5 mins. After stopping the trypsinization with 5 ml 10% FBS, these tissues were triturated 15 times with a fire polished Pasteur pipet. Cell clumps were left to settle for 2 mins and the supernatant was transferred to a 15 ml Eppendorf tube. The supernatant was filtered through a 70 μm pore-sized filter (Corning cell strainer) and centrifuged for 5 mins at 1000 rpm. The cells were then resuspended in Neurobasal medium (GIBCO) containing 2% B27 (GIBCO) and 2% N2 (GIBCO) supplements, along with 0.5 mM glutamine, 50 U/ml penicillin/streptomycin.
Cells were counted using a Neubauer hemocytometer. 1×10^6 cells were seeded on poly-D-lysine-coated 12 well cell culture dish (CORNING) and cultured in incubator (37° C., 5% CO2). Culture medium was first replaced after 24 h, then half of the medium was replaced with fresh medium every three days. As a result, approximately, 90% purity of neurons was obtained as determined by class-III-β tubulin, GFAP and Hoechst 33258 staining. Cells were maintained in culture for about 2 weeks until they were exposed to uncompensated oxidative stress, OGD, or NMDA excitotoxicity.
After 90 mins of OGD exposure, cells were returned to the original medium (Neurobasal medium (GIBCO) containing 2% B27 (GIBCO) and 2% N2 (GIBCO) supplements, along with 0.5 mM glutamine, 50 U/ml penicillin/streptomycin) and placed in a normoxic chamber (37° C., 5% CO2) for 2 h. Then the medium was changed with medium containing either ELV-N32 or ELV-N34 [500 nM] and maintained in a normoxic chamber (37° C., 5% CO2) for 12 h, after which cells were sampled and assayed for cell viability using different methods as previously described (25-28). Cerebral cortical mixed neuronal cells or hippocampal cells in culture were exposed to either NMDA or uncompensated oxidative stress (UOS) for 12 h by addition of either NMDA (25 μM, 50 μM, or 100 μM) concentration or by the addition of TNFα (10 ng/mL) and H2O2 (50 μM, 100 μM, or 200 μM). Cell viability and neuroprotection in the presence of ELV-N32, ELV-N34, 32:6, or 34:6 were assayed after 12 h.
Hoechst staining and unbiased image analysis: Cells were washed with 1× Dulbecco's Phosphate Buffered Saline (DPBS) containing no calcium or magnesium (GIBCO) and fixed for 10 mins using ice-cold 4% paraformaldehyde (PFA) followed by 15 mins incubation in 100% methanol. Cells were washed with 1× Phosphate Buffered Saline (PBS) pH 7.4 (GIBCO) and incubated in PBS containing 20 μM Hoechst 33258 (Molecular Probes) for 20 mins. Cells were then washed 3 times with 1× PBS and stored in 1× PBS at 4° C. until they were imaged for microscopy.
One 4×4 tile mosaic was acquired from the center of each well using a Zeiss 510 Meta laser confocal microscope and LSM 510 Meta software. Images were imported into image analysis software ImageJ (National Institutes of Health, Bethesda, Md.) and batch processed using custom macros. An Otsu auto threshold was applied to each image of Hoechst-stained nuclei, and the area of each detected object was recorded. Objects with areas <10 μm^2 were excluded from analysis. To estimate percentage non-pyknotic nuclei, a size cutoff value was chosen above which objects were assumed to be non-pyknotic. […]

For the next test, the system named is ARPE-19 cells under UOS. Put plainly: Western blot of pro-survival and pro-apoptotic proteins in ARPE-19 cells under UOS. As to conditions: for Bax protein / Bid protein / Bim protein: Western blot, UOS; for Prohibitin (type-1) expression (ELV): sodium salts and methyl ester forms, concentration-dependent, 100-200 nM; for effect of 15-LOX-1 inhibitor on VLC-PUFA-induced Iduna expression: FIG. 7D. The class given is cell-based, human. The method, then: (§1) ARPE19 cells at 75-80% confluence (72 h growth in DMEM/F12+10% FBS) in 6-well plates were serum-starved for 8 h before exposure. The serum-starved cells were treated with TNF-α (Sigma-Aldrich, St. Louis, Mo.) (10 ng/ml) and H2O2 (600 μM) to induce oxidative stress and challenged with increasing concentrations (50-500 nM) of VLC-PUFA (C32:6n3 and C34:6n3) simultaneously with oxidative stress for 16 h (apoptosis) and 6 h (Western-blot) before detection of apoptosis and harvesting for protein analysis. In some experiments, DHA at a concentration of 100 nM and 15-LOX-1 inhibitor PD146176 at a concentration of 1 μM was added to treat the RPE cells under stress. Cell extracts were made and protein concentrations adjusted by Bio-Rad (Hercules, Calif.) protein reagent and used for Western blot analysis.
Analysis of Proteins: Bcl-2 family proteins, SIRT1 and Proinhibitin (type-1), and Iduna proteins were analyze by Western blot analysis. In brief, 20-25 μg equivalents of each cell extracts were subject to electrophoresis on a 4-12% gel (Promega) at 125 V for 2 h. The proteins were transferred to nitrocellulose membrane by I-blot transfer apparatus. The membranes were subjected to treatment with primary antibodies specific for Bcl-2, Bcl-xL, Bax, Bid, Bim, SIRT1 and Prohibitin (type-1) (Santa Cruz Biotechnology) and Iduna antibody (Neuro-Mab Lab, UCLA, Los Angeles, Calif.) overnight at 4° C. and probed for 45 mins with secondary antibody, goat anti-mouse Ig:horseradish peroxidase, and horseradish peroxidase-conjugated anti-biotin antibody, and then proteins were evaluated by using an ECL kit (Amersham).
Background: Immunoblotting shows a protein as a band on a membrane.

Another test has as its system primary human RPE cells. Put plainly: UOS-induced cell death in primary human RPE cells (Hoechst staining). It counts as cell-based. As to conditions: UOS with H2O2 (800 μM), 16 h; VLC-PUFAs 3 μM each, NPD1 200 nM; UOS alone 50% cell death. The method, then: Exposure of RPE cells to UOS and VLC-PUFA: For cell viability assay experiments hRPE cells were treated concomitantly with NPD1 (200 nM), 32-6, 34-6 (3 μM each) fatty acids or both 32-6 and 34-6 simultaneously. The hRPE medium was supplemented with 3 μM of 32-6 and 34-6 for the entire duration of the experiment. 15 lox-1 inhibitor (10 μM) was added to the cells 1 hour prior the OS induction and kept throughout the experiment. Cells were fixed with 4% PFA and stained with Hoescht.
(§2) To assess cell death, hRPE and ARPE-19 cells were fixed with methanol for 15 mins, washed with 1× PBS then loaded with 2 μM Hoechst dissolved in a Locke's solution (Promega) and incubated for another 15 mins before imaging. Cells were then viewed by using a Zeiss LSM 510 confocal microscope under UV fluorescence. Images were recorded and cell apoptosis was assessed by using an automated unbiased method.
To test the efficacy of 32:6n3 and 34:6n3 VLC-PUFAs to modulate human RPE cell homeostasis and survival rates, human RPE cells undergoing UOS were incubated with both VLC-PUFAs (3 μM each) and NPD1 (200 nM) 16 h. The addition of H2O2 (800 μM) induced apoptosis (50% cell death).
hRPE cells, formerly serum deprived for 12 h, were incubated with the 15 lipoxygenase 1 (15-LOX-1) inhibitor (PD146176) (10 μM for 1 h), then bathed with 600 μM H2O2/TNF-α in conjunction with a mixture of 32:6n3 and 34:6n3 (3 μM each) for 16 h. The 15-LOX-1 inhibitor sensitizes cells; therefore, a lower concentration of H2O2 than in the cytoprotection experiment was used.

The subject of another test is ARPE-19 cells. Put plainly: UOS-induced apoptosis in ARPE-19 cells (Hoechst-positive pyknotic cells). The class given is cell-based, human. As to conditions: inhibitor 1 μM, RPE cells undergoing UOS. As to the method: as §1, §2

Take `CC/C=C\C[C@H](O)\C=C/C=C/C=C/[C@H](O)C/C=C\C/C=C\CCCCCCCCCCCCC(=O)O` [ELV-N32, (14Z,17Z,20R,21E,23E,25Z,27S,29Z)-20,27-dihydroxydo-triaconta-14,17,21,23,25,29-hexaenoic acid]: in test [1], the “protection of RPE and retina from OAβ induced senescence” value is “protect RPE and retina”. Besides, the NMDA-induced neuronal death result in test [2] was “compensated for”. Also, in the test with ARPE-19 cells under UOS, the Bax protein result is recorded as “decreased”, the Bid protein result is on record as “decreased”, the Bim protein entry is “decreased” and the “Prohibitin (type-1) expression (ELV)” value is “upregulated”.
`CC/C=C\C[C@H](O)\C=C/C=C/C=C/[C@H](O)C/C=C\C/C=C\CCCCCCCCCCCCCCC(=O)O` [ELV-N34, (16Z,19Z,22R,23E,25E,27Z, 29S,31Z)-22,29-dihydroxytetra-triaconta-16,19,23,25,27,31-hexaenoic acid]: in test [1], the “protection of RPE and retina from OAβ induced senescence” value was “protect RPE and retina”. The NMDA-induced neuronal death entry in test [2] is “compensated for”. In the test on ARPE-19 cells under UOS, the Bax protein result is “decreased”, the Bid protein result is reported as “decreased”, the Bim protein result was “decreased” and the “Prohibitin (type-1) expression (ELV)” value is on record as “upregulated”.
In the case of `CC/C=C\C[C@H](O)\C=C/C=C/C=C/[C@H](O)C/C=C\C/C=C\CCC(=O)O` [NPD1, 10R,17S-dihydroxy-docosa-4Z,7Z,11E,13E,15Z,19Z-hexaenoic acid, reference compound], the “cell death (apoptosis)” value in the test on primary human RPE cells is 11%.
As for `c1ccc2c(c1)SCc1c-2[nH]c2ccccc12` [PD146176, reference compound], the “SIRT1 expression with VLC-PUFA in the presence of 15-LOX-1 inhibitor” value in the test with ARPE-19 cells under UOS (FIG. 7C) is on record as “augmented”. Also, the figures for the “effect of 15-LOX-1 inhibitor on VLC-PUFA-induced Iduna expression” value in the test on ARPE-19 cells under UOS and in the test with ARPE-19 cells under UOS (listed as 15-LOX-1 inhibitor) were “attenuates” and “unaffected”, respectively. In the test with ARPE-19 cells under UOS (inhibitor 1 μM), the “effect of 15-LOX-1 inhibitor on ELV-induced protein upregulation (Iduna)” value was “blocked these effects”. Moreover, in the test with ARPE-19 cells, the “effect of 15-LOX-1 inhibitor on ELV-mediated inhibition of apoptosis” value is listed as “compensate for ELV-mediated inhibition of apoptosis”.
In the case of MK801 maleate [reference compound], in test [2] (10 μM antagonist), the NMDA excitotoxicity entry is reported as “overcome”.
